Laboratory results as given in paper PMC4168161, “A novel approach for the discovery of chemically diverse anti-malarial compounds targeting the Plasmodium falciparum Coenzyme A synthesis pathway” (Malaria Journal, 2014).
Values joined by “and” are separate entries in the source; they are usually repeats but may differ in a detail not shown here. Equal entries are not always repeated.

How the values were obtained:
HEK293 cells [1] = experiment: HEK293 viability assay (resazurin); format: cell-based, human; conditions: for IC50: HEK293, 72 hr, top concentration 40 μM, n = 3
Description: (§1) To assess cytotoxicity of compounds in dose response, a resazurin-based assay was utilized to determine cell viability. In brief, HEK293 cells were grown in DMEM medium (Life Technologies) containing 10% foetal calf serum (FCS; Gibco). Cells were trypsinized, counted and seeded at 2,000 cells per well in 45 μl media into TC-treated 384-well plates (Falcon) and left to adhere overnight at 37°C, 5% CO2 and 95% humidity.
(§2) Test compounds were prepared as described above, to give a top final test concentration of 40 μM, 0.4% DMSO. Plates were incubated for 72 hr at 37°C, 5% CO2 and 95% humidity, then the media was removed and replaced by 35 μl of 44 μM resazurin in DMEM without FCS. The plates were incubated for another 4-6 hr at 37°C, 5% CO2 and 95% humidity before reading on an EnVision® Plate Reader (PerkinElmer) using fluorescence excitation/emission settings of 530 nm/595 nm. Determination of the% growth compared to controls (40 μM puromycin as positive and 0.4% DMSO as negative control) was performed in Microsoft® Excel 2010. Statistical analysis including IC50 determination and graphical output was performed in GraphPad Prism® 5 using nonlinear regression variable slope curve fitting.

[2] = test system: P. falciparum CoA synthesis pathway; experiment: Coenzyme A chemical rescue assay on P. falciparum; format: cell-based, Plasmodium falciparum; conditions: for CoA rescue (relative parasite number, % of untreated control): at 2 μM compound, with CoA supplementation; for IC50 shift upon CoA supplementation / antiplasmodial activity of control compounds upon CoA supplementation: eight-point dose response, n = 2; for IC50 shift upon CoA supplementation: fixed CoA (0.8-2 mM); for antiplasmodial activity of control compounds upon CoA supplementation: fixed CoA
Description: The well-established P. falciparum imaging assay was modified to allow assessment of chemical rescue with CoA. In brief, sorbitol (5% w/v) synchronization was performed twice, approximately 8 hr apart, on each synchronization day for two consecutive ring cycles, i.e., on day 1 and 3 of assay preparation. On day 2 the culture was split to approximately 2% trophozoite parasitaemia. On day 4 the culture was split to 1-1.5% trophozoite parasitaemia, which yielded approximately 8% ring parasitaemia after 48 hr (on day 5, i.e., the day of the assay set-up). Compound stocks (10 mM in 100% DMSO) were diluted 1:25 in sterile water, less than 24 hr prior to use. An additional 1:10 dilution was performed, resulting in a 1:250 overall compound dilution and a final DMSO concentration of 0.4%. For initial screening, compounds were tested at a final 2 μM concentration. […] The known P. falciparum CoA synthesis inhibitor, panthenol, was prepared as a 100 mM solution in 4% DMSO. The final concentration of the dose response curve of panthenol started at 10 mM and was serially diluted down to 100 nM. CoA was dissolved in water. […] Five μl of the 1:25 diluted test compound or control solutions were added to 384-well CellCarrier imaging plates (PerkinElmer). For the chemical rescue, 5 μl of CoA solution were added to ‘rescue’ wells and 5 μl water to all control and reference wells, respectively. Parasite culture was added to a final concentration of 1% parasitaemia (% P) and 0.3% haematocrit (% H). Plates were incubated for 72 hr at 37°C, 5% CO2 and 95% humidity. On day 8 the permeabilization and nuclear staining buffer was prepared in PBS containing 10 μg/ml saponin, 0.01% triton X, 5 mM EDTA (all: Sigma) and 0.5 μg/ml 4′,6-diamidino-2-phenylindole (DAPI; Life Technologies). The plates were left for at least 4 hr (typically overnight), before confocal imaging on an Opera™ High Content Screening Platform (PerkinElmer) at 405 nm excitation with a 20x water objective. Automated primary image analysis was performed concurrent with the imaging process, utilizing an Acapella® software (PerkinElmer) script to determine the number of parasites based on object size and fluorescence intensity. Determination of the % growth compared to controls (2 μM artemisinin as positive and 0.4% DMSO as negative control) was performed in Microsoft® Excel 2010. Statistical analysis including IC50 determination and graphical output was performed in GraphPad Prism® 5 using non-linear regression variable slope curve fitting. Cell-based high throughput screening (HTS) entails the distinct benefit that positive hits have already proven effective against the live parasite within its natural host erythrocyte environment. Modifications of an image-based assay were undertaken to identify compounds that interfere with the P. falciparum CoA pathway. The modification involved a chemical rescue approach adapted from a similar method used to investigate apicoplast function. The principle idea of the chemical rescue approach is that supplementation of an unbranched pathway’s end product – in this case CoA - should abrogate, or at least alleviate, negative growth effects of compounds inhibiting any step in the pathway. […] To identify new potential CoA synthesis inhibitors, the CoA chemical rescue approach was used to screen 144 compounds with known antiplasmodial activity identified by HTS in the Avery laboratory, in addition to the MMV malaria box. […] Compounds which rescued growth to at least 50% of control values and two-fold difference compared to treatment alone, were regarded as partial rescue hits.

[3] = test system: Plasmodium falciparum strain 3D7; experiment: Plasmodium falciparum growth inhibition imaging assay; format: cell-based; conditions: for parasite growth inhibition: 2 μM; for IC50: P. falciparum 3D7, 72 hr; for IC50 / P. falciparum growth: n = 3; for P. falciparum growth: 3D7, dose response
Description: In vitro parasite culture was maintained in RPMI with 10 mM Hepes (Life Technologies), 50 μg/ml hypoxanthine (Sigma) and 5 mg/ml AlbuMAX II® (Life Technologies). Human O + erythrocytes were obtained from the Australian Red Cross Blood Service (Agreement No: 13-04QLD-09). The parasites were maintained at 2-8% parasitaemia (% P) at 5% haematocrit (% H), incubated at 37°C, 5% CO2, 5%O2 and 90% N2 and 95% humidity. The well-established P. falciparum imaging assay was modified to allow assessment of chemical rescue with CoA. In brief, sorbitol (5% w/v) synchronization was performed twice, approximately 8 hr apart, on each synchronization day for two consecutive ring cycles, i.e., on day 1 and 3 of assay preparation. On day 2 the culture was split to approximately 2% trophozoite parasitaemia. On day 4 the culture was split to 1-1.5% trophozoite parasitaemia, which yielded approximately 8% ring parasitaemia after 48 hr (on day 5, i.e., the day of the assay set-up). Compound stocks (10 mM in 100% DMSO) were diluted 1:25 in sterile water, less than 24 hr prior to use. An additional 1:10 dilution was performed, resulting in a 1:250 overall compound dilution and a final DMSO concentration of 0.4%. For initial screening, compounds were tested at a final 2 μM concentration. For dose response curves of the active compounds, a semi-logarithmic serial dilution (containing three data points per log) was prepared at 40 μM top concentration for test compounds and 2 μM for the positive control, artemisinin. The known P. falciparum CoA synthesis inhibitor, panthenol, was prepared as a 100 mM solution in 4% DMSO. The final concentration of the dose response curve of panthenol started at 10 mM and was serially diluted down to 100 nM. CoA was dissolved in water. The final CoA concentration for optimal rescue results was determined for each CoA batch and ranged between 0.8-2 mM. Five μl of the 1:25 diluted test compound or control solutions were added to 384-well CellCarrier imaging plates (PerkinElmer). For the chemical rescue, 5 μl of CoA solution were added to ‘rescue’ wells and 5 μl water to all control and reference wells, respectively. Parasite culture was added to a final concentration of 1% parasitaemia (% P) and 0.3% haematocrit (% H). Plates were incubated for 72 hr at 37°C, 5% CO2 and 95% humidity. On day 8 the permeabilization and nuclear staining buffer was prepared in PBS containing 10 μg/ml saponin, 0.01% triton X, 5 mM EDTA (all: Sigma) and 0.5 μg/ml 4′,6-diamidino-2-phenylindole (DAPI; Life Technologies). The plates were left for at least 4 hr (typically overnight), before confocal imaging on an Opera™ High Content Screening Platform (PerkinElmer) at 405 nm excitation with a 20x water objective. Automated primary image analysis was performed concurrent with the imaging process, utilizing an Acapella® software (PerkinElmer) script to determine the number of parasites based on object size and fluorescence intensity. Determination of the % growth compared to controls (2 μM artemisinin as positive and 0.4% DMSO as negative control) was performed in Microsoft® Excel 2010. Statistical analysis including IC50 determination and graphical output was performed in GraphPad Prism® 5 using non-linear regression variable slope curve fitting.

HEK293 cells [4] = experiment: CoA chemical rescue on HEK293 cells; format: cell-based, human; conditions: dose response with and without CoA, n = 2
Description: as §1
as §2, with “Plates” for “Test compounds were prepared as described above, to give a top final test concentration of 40 μM, 0.4% DMSO. Plates”

Row | Structure (SMILES) | IC50 (HEK293 cells [1]) | CoA rescue (relative parasite number, % of untreated control) [2] | IC50 shift upon CoA supplementation [2] | cytotoxic effect on HEK293 cells upon CoA addition (HEK293 cells [4]) | antiplasmodial activity of control compounds upon CoA supplementation [2] | other results
1 | Cc1ccc(C(C)C)c(OCc2nc3ccccc3n2C)c1 [Amb1541406] | > 40 µM | 80% rescue at 2 μM | 1.5 times | – | – | inhibition of P. falciparum 3D7 ([3]; at 40 μM): 85% inhibition at 40 μM
2 | OC1CCCCC1C1(NC(=S)Nc2ccccc2)CCCCC1 (stereo not shown) [Amb2368822/(MMV665980)] | > 40 µM | 80% rescue at 2 μM | more than doubled | – | – | parasite growth inhibition ([3]; MMV malaria box screen): 27%; parasite growth inhibition ([3]; original single dose screen, focussed compound library plate): 66%; parasite growth inhibition ([3]; retested twice from freshly dissolved solid): 98% and 90%; compound stability (inferred from lower activity of stored stock solution) ([3]; 100% DMSO stock at -20°C): potentially unstable; SI (selectivity index) ([3]; HEK293 IC50 value divided by P. falciparum IC50 value): > 6.3; IC50 [3]: 6.31 µM; IC50 ([3]; listed as Amb2368822): 6.3 µM
3 | CC(=O)C1=C(c2ccccc2)C(=O)c2ccccc2C1=O [Amb4317088] | 2.33 µM | 80% rescue at 2 μM | more than doubled | reduced upon CoA addition | – | IC50 [3]: 1.23 µM
4 | CC(C)(COP(=O)(O)OP(=O)(O)OC[C@H]1O[C@@H](n2cnc3c(N)ncnc32)[C@H](O)[C@@H]1OP(=O)(O)O)[C@@H](O)C(=O)NCCC(=O)NCCS [CoA, Coenzyme A] | – | – | – | – | – | P. falciparum growth [3]: not significantly altered
5 | CC(C)(CO)C(O)C(=O)NCCCO (stereo not shown) [Panthenol, panthenol, reference compound] | – | – | – | completely negate | counteracted by CoA | cytotoxicity against HEK293 cells (HEK293 cells [1]; at 40 μM): cytotoxic effect; CoA rescue of growth inhibitory effect ([2]; CoA supplementation between 1 and 2 mM): fully rescued; P. falciparum growth [3]: dose-dependent P. falciparum growth inhibitor
6 | C[C@@H]1CC[C@H]2[C@@H](C)C(=O)O[C@@H]3O[C@@]4(C)CC[C@@H]1[C@]32OO4 [artemisinin, reference compound] | – | – | – | – | not reduced by CoA supplementation | –
7 | COc1ccc(C[C@H](N)C(=O)N[C@H]2[C@@H](O)[C@H](n3cnc4c(N(C)C)ncnc43)O[C@@H]2CO)cc1 [puromycin, reference compound] | – | – | – | no impact | – | –
8 | CCc1nc(N)nc(N)c1-c1ccc(Cl)cc1 [pyrimethamine, reference compound] | – | – | – | – | not reduced by CoA supplementation | –
